The values below come from publication PMC5349447, “Applying a high-throughput fluorescence polarization assay for the discovery of chemical probes blocking La:RNA interactions in vitro and in cells” (PLoS ONE, 2017).

Data set [1] concerns T1, La-WT:fD1-RNA complex.
T1 construct: His; made in house; host or cells: E. coli BL21
The experiment in a line: EMSA, compound competition, La-WT:fD1. The data set is classed as binding, human. The note with it: La-WT 60 nM, fD1 50 nM. The method, then: 12% native TBE polyacrylamide gels were prepared in a Mini-PROTEAN Tetra Handcast System (BioRad). The gel was pre-run for 30 min at 140 V in 1x TBE buffer (45 mM Tris/HCl pH 8.5, 45 mM boric acid, 1 mM EDTA). To prepare the RNA-mix, fluorescence labeled RNA oligoribonucleotides (oligos) were diluted in fluorescence polarization buffer (20 mM Tris/HCl (pH 7.4), 150 mM NaCl, 3.0 mM MgCl2, 0.5 mM EDTA, 0.05% (v/v) IGEPAL), mixed for 10 min at 80°C, and then immediately placed on ice for at least 5 min. All RNA oligos were used at a final concentration of 50 nM. Recombinant La protein was diluted in D-buffer (20 mM Tris/ HCl (pH 7.4), 150mM NaCl, 3mM MgCl2, 0.5mM EDTA, 5% glycerol) and placed on ice until use.
La titration was performed at final concentrations of 20, 40, 60, 100, 200, 300, 400, 500, 600 nM La. Three different La concentrations were used for compound studies: 60 nM for fD1 RNA, 200 nM for fPolyU RNA, and 150 nM for TOPf RNA studies. Two μl of diluted compound (diluted in 100% DMSO) or 2 μl 100% DMSO (control reaction) was combined with 8 μl La-mix in a 96-well plate. 10 μl RNA-mix was added, mixed for 2 min, and incubated for 10 min at RT in the dark. Final concentrations in the reaction: 18 mM Tris/HCl (pH 7.4), 135 mM NaCl, 2.7 mM MgCl2, 0.45 mM EDTA, 0.025% (v/v) IGEPAL, 2% glycerol, 10% DMSO). Samples were loaded onto the pre-run gel without any loading buffer. Gels were run at 160 V for 40 min in the dark. The gels were carefully transferred to a clear plastic wrap and scanned using a Typhoon FLA900 imager. The La-RNA complex (La-RNP) formation was quantified using the ImageQuant TL software.
Next we used our established EMSA to test whether compound C2 and C6 can compete against the three RNA oligos: fD1, fPolyU, and TOPf. All of the EMSA reactions were loaded in the following order: lane 1 contains the RNA oligo alone; lane 2 contains the RNA oligo plus La protein at concentration that shifts 50% of the RNA oligo (positive control); lanes 3–9 contain the RNA oligo, La protein and decreasing concentrations of the compound; and lane 10 contains the RNA oligo and the highest compound concentration (negative control).

Data set [2] concerns SCC 22B cells. Description: Cell toxicity, CyQUANT cell number, SCC 22B. Particulars: for effect on SCC 22B cell numbers: 48 h, 12.5-150 μM. Format: cell-based, human. The method, then: (§1) Normal fibroblast MRC5 and human embryonic kidney HEK293 cells were purchased from ATCC. Head and neck squamous cell carcinoma cell lines UM-SCC 22A (SCC 22A) and UM-SCC 22B (SCC 22B) were described elsewhere. MRC5 cells were cultured in EMEM plus 10% FBS; SCC 22A, SCC 22B, and HEK293 cells were cultured in advanced DMEM (Gibco) containing 2 mM L-glutamine (Life Technology) and 10% FBS. All cell lines were tested for mycoplasma contamination by applying a MycoSensor PCR Assay kit according to the manufacturer’s instructions (Agilent Technologies).
(§2) To test for cell toxicity the compounds were dissolved in 100% DMSO to a concentration of 100 mM. Subsequently, compounds were diluted in media to 10 mM (10% DMSO), 1 mM (1% DMSO) and tested at 150, 125, 100, 75, 50, 25 μM in SCC 22B and MRC5 cells. To reach this concentration compounds (stock 1 mM, 1% DMSO) were diluted in the cell culture dish (96-well format, 100 μl final volume) as follows: 150 μM = 6.7 fold (final DMSO: 0.15%); 125 μM = 8.0 fold (final DMSO: 0.125%); 100 μM = 10 fold (final DMSO: 0.1%); 75 μM = 13.3 fold (final DMSO: 0.075%); 50 μM = 20 fold (final DMSO: 0.05%); and 25 μM = 40 fold (final DMSO: 0.025%). As a control the highest DMSO concentration of 0.15% was used. Cells were cultured in appropriate media (see above) for 48h. Subsequently, cells were washed twice with 1x PBS and quantified after staining with fluorescence dye (CyQUANT®, Life Technologies). For this experiments 3x10^4 of MRC5 and 1x10^4 SCC 22B cells were plate the day before the experiment.

In data set [3] the test system is MRC5 cells. Description: Cell toxicity, CyQUANT cell number, MRC5. The data set is classed as cell-based, human. The note with it: 48 h, up to 150 μM. The method, then: as §1, §2
The test system of data set [4] is SCC 22B cells. The experiment in a line: Cisplatin sensitization, CyQUANT, SCC 22B. Format: cell-based, human. The note with it: SCC 22B. The procedure: To test whether compound C2.01 sensitizes cells for cisplatin, cells were treated with 0.2% DMSO alone, cisplatin at 4, 8, 16, 32 or 64 μM concentration alone or in combination with 50 μM compound C2.01. The half maximal inhibitory concentration (IC50) of cisplatin was determined by treating SCC 22B cells with increasing cisplatin (Selleckchem) concentrations or vehicle (DMSO) for 48 h (96-well format) as described recently. For this experiments 1x10^4 SCC 22B cells were plated the day before the experiment. DMSO or C2.01 was added to a final concentration of DMSO (0.05%) and C2.01 (50 μM). Six hours later the different cisplatin concentrations were added. The highest DMSO concentration of 0.25% was used in the control for cisplatin and C2.01 double treatment. Subsequently, cells were washed twice with 1x PBS and quantified after staining with fluorescence dye (CyQUANT®, Life Technologies) 48 after the initial C2.01 treatment.

The subject of data set [5] is SCC 22A cells. More on the design: method as in PMID 27105491. The note with it: used as treatment concentration, read-out: cisplatin IC50; cited from earlier work.
Data set [6] deals with T2, La-WT (La autoantigen, LARP3) (human, UniProt P05455 1-408).
T2 sequence: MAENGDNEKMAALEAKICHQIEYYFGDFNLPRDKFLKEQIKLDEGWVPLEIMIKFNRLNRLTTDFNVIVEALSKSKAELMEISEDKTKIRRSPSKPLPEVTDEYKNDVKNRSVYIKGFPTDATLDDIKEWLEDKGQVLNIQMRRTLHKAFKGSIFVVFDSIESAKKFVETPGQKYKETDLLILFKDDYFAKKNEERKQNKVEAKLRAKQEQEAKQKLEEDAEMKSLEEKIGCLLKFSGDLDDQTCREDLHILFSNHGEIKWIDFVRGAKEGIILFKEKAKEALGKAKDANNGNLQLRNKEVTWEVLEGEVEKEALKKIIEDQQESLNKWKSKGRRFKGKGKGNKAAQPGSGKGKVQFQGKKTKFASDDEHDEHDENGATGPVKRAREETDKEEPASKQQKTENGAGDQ
Description: competition; EMSA vs TOPf; EMSA: about 20 mM Tris-HCl pH 7.4, 150 mM NaCl, 3 mM MgCl2, 0.5 mM EDTA, IGEPAL, glycerol, 50 nM RNA, RT 10 min (with compounds: 18 mM Tris, 135 mM NaCl, 2.7 mM MgCl2, 0.45 mM EDTA, 0.025% IGEPAL, 2% glycerol, 10% DMSO); FP: 20 mM Tris-HCl pH 7.5, 3 mM MgCl2, 0.5 mM EDTA, 150 mM NaCl, 0.05% IGEPAL, 100 ug/ml BGG, RT 15 min. The note with it: protein: recombinant; tags: His; label: none.

The target of data set [7] is T3, La-RRM1+2 (human, UniProt P05455 111-348).
T3 sequence: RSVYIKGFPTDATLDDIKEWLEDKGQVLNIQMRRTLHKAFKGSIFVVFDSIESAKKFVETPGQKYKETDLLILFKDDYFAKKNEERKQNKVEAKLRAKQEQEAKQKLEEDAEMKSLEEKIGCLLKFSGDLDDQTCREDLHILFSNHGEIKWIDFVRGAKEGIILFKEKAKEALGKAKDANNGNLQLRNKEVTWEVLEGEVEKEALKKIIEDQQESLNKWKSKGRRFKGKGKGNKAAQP
Description: EMSA; EMSA: about 20 mM Tris-HCl pH 7.4, 150 mM NaCl, 3 mM MgCl2, 0.5 mM EDTA, IGEPAL, glycerol, 50 nM RNA, RT 10 min (with compounds: 18 mM Tris, 135 mM NaCl, 2.7 mM MgCl2, 0.45 mM EDTA, 0.025% IGEPAL, 2% glycerol, 10% DMSO); FP: 20 mM Tris-HCl pH 7.5, 3 mM MgCl2, 0.5 mM EDTA, 150 mM NaCl, 0.05% IGEPAL, 100 ug/ml BGG, RT 15 min. Particulars: protein: recombinant, tags: His.

Data set [8] addresses T2, La-WT (La autoantigen, LARP3). The data set is described as above. Particulars: protein: recombinant, tags: His.

On to `O=C(O)c1ccccc1C(=O)c1ccc2ccccc2c1O` [C2.02, 2-(1-hydroxy-2-naphthoyl)benzoic acid], for which, in data set [1], the “competition for La:fD1 interaction (EMSA), in words” value (shortened to “competition for La:fD1 interaction”) is “lower concentration”. In addition, the “effect on SCC 22B cell numbers” value in data set [2] was “no effect”. Besides, in data set [3], the “toxic effect on MRC5 cells (normal fibroblasts)” value (from here on “toxic effect on MRC5 cells”) is “toxic effect”.

As to `CCCCOC(=O)c1ccc2c(c1)C1C=CCC1C(C(=O)O)N2` (centres unmarked) [C6.02, 8-(butoxycarbonyl)-3a,4,5,9b-tetrahydro-3H-cyclopenta[c]quinoline-4-carboxylic acid], the “competition for La:fD1 interaction” value in data set [1] is given as “slightly lower concentrations than C6.00”. Moreover, the “effect on SCC 22B cell numbers” value in data set [2] is “reduced SCC 22B cell numbers even at low concentrations”. In data set [3], the “toxic effect on MRC5 cells” value is on record as “toxic effect”.

On to `CC(C)COC(=O)c1ccc2c(c1)C1C=CCC1C(C(=O)O)N2` (centres unmarked) [C6.01, 8-(isobutoxycarbonyl)-3a,4,5,9b-tetrahydro-3H-cyclopenta[c]quinoline-4-carboxylic acid], for which, in data set [1], the “competition for La:fD1 interaction” value is given as “slightly lower concentrations than C6.00”. Also, the “effect on SCC 22B cell numbers” value in data set [2] is given as “reduced SCC 22B cell numbers even at low concentrations”. Moreover, in data set [2] (SCC 22B versus MRC5, 48 h), the “selectivity: cancer cell numbers compared to effect on normal MRC5 cells” value is “preferentially reduced cancer cell numbers”. In data set [3], the “toxic effect on MRC5 cells” value is on record as “toxic effect”.

For the molecule `N.N.[Cl][Pt][Cl]` [cisplatin], the IC50 is 18000 nM in data set [4] (pretreatment with 50 μM C2.01, 48 hours); 32000 nM in data set [4] (vehicle (DMSO) pretreatment, 48 hours); 12000 nM in data set [5].

B1: TOP-mu2 (ssRNA)
RNA: GGCCCUUUUCCCACCCCCUAGCGCCGCUGGGCCU
Regarding B1, the binding result in data set [6] is listed as “binds”.

B2: fPolyU (ssRNA)
RNA: UGCUGUUUU
With B2, the binding result in data set [7] (no structure predicted) is listed as “no binding”. In data set [8] (no structure predicted), the Kd was 138 ± 12.6 nM.

B3: TOPf (structured_RNA)
RNA: CCCUUUUCCCACCCCCUAGCGCCGCUGGGCCU
With B3, the Kd in data set [8] (mfold predicted structure) was 147 ± 35.1 nM.

B4: capTOPf (structured_RNA)
RNA: CCCUUUUCCCACCCCCUAGCGCCGCUGGGCCU
modifications: 5' m7G cap
On to B4, for which the Kd in data set [8] worked out at 183 ± 15.3 nM.

B5: fD1 (structured_RNA)
RNA: GCUGCCCAGGAAGAGCCCCAGCCAUGGAACACCAGCUCCUGUGCUGC
B5: the Kd in data set [7] (hairpin (mfold prediction)) is 81.7 ± 12.6 nM; in data set [8] (hairpin (mfold prediction)), 85 ± 7.5 nM.
